pIC50: −log10 of the molar value. Where “and” joins values, the source holds several entries; their conditions need not be identical. Equal values may be shown once. Read-outs that look alike come from different tables or passages of the source.
Molecular target: T1, human carbonic anhydrase II (Homo sapiens, UniProt P00918)
T1 construct: purchased Sigma C-6165
Experiment: Carbonic anhydrase II inhibition assay (p-nitrophenol acetate, absorbance at 405 nm)
Type: biochemical
Conditions: for IC50: Table 2
Description: Final concentrations of each inhibitor ranged from 1 picomolar to 1 micromolar. Control samples that included either no inhibitor or no enzyme were also performed.
The admixture of substrate and enzyme initiates the enzyme reaction. […] The inhibition at each inhibitor concentration was measured in triplicate. The IC50 value was then derived using the GraphPad Prism curve fitting software. […] The compound number listed in Table 2 and 3 corresponds with the same compound number detailed in Table 1.

[1] = single values of the N determinations, read-out: CA Assay IC50 (μM), individual determinations in parentheses
[2] = read-out: IC50 for inhibition of CA II activity
[3] = overall value of N determinations, read-out: CA Assay IC50 (μM) and concentration of inhibitor added
[4] = Table 3, mean, read-out: Mean IC50

SMILES | pIC50 [4] | further results
Cc1ccc(-c2cc(C(F)(F)F)n(-c3ccc(S(N)(=O)=O)cc3)n2)cc1 [Compound 1] |  | IC50 [1]: 0.015 µM and 0.021 µM and 0.004 µM; pIC50 [2]: 8.00
CCCCOc1ccc(-c2cc(C(F)(F)F)nn2-c2ccc(S(N)(=O)=O)cc2)cc1 [Compound 2] |  | IC50 [3]: 0.04 µM; IC50 [1]: 0.03 µM and 0.04 µM
NS(=O)(=O)c1ccc(-n2nc(-c3ccccc3)cc2-c2ccccc2)cc1 [Compound 3] |  | IC50 [3]: 0.04 µM
CC(=O)SCc1cc(-c2ccc(Cl)cc2)n(-c2ccc(S(N)(=O)=O)cc2)n1 [Compound 4] |  | IC50 [3]: 0.09 µM
C=C1N[C@@H]2[C@@H](CS[C@@H]2CCCCC(=O)NCCOCCOCCNC(=O)CSCc2cc(-c3ccc(Cl)cc3)n(-c3ccc(S(N)(=O)=O)cc3)n2)N1 [Compound 6] |  | IC50 [3]: 0.18 µM
NC(=O)c1nn(-c2ccc(S(N)(=O)=O)cc2)c2c1CCc1cnccc1-2 [Compound 8] | 6.71 | 
COC(=O)C1c2ccccc2-c2c1cnn2-c1ccc(S(N)(=O)=O)cc1 (stereo not shown) [Compound 9] | 7.48 | 
NC(=O)c1nn(-c2ccc(S(N)(=O)=O)cc2)c2c1C[S+]([O-])c1ccccc1-2 (stereo not shown) [Compound 12] | 6.33 | 
CC1CCc2c(c(C(=O)O)nn2-c2ccc(S(N)(=O)=O)cc2)C1 (stereo not shown) [Compound 13] | 7.15 | 
NC(=O)c1nn(-c2ccc(S(N)(=O)=O)cc2)c2c1CNc1ccccc1-2 [Compound 14] | 6.99 | 
CCOC(=O)c1nn(-c2ccc(S(N)(=O)=O)cc2)c2c1CCC=C2 [Compound 15] | 8.25 | 
CS(=O)(=O)Nc1cccc(-c2cc(C(N)=O)nn2-c2ccc(S(N)(=O)=O)cc2)c1 [Compound 16] | 7.47 | 
CN(C)/C=N/c1cccc(-c2cc(C(N)=O)nn2-c2ccc(S(N)(=O)=O)cc2)c1 [Compound 17] | 6.74 | 
NS(=O)(=O)c1ccc(-n2ncc3c2-c2ccncc2CC3)cc1 [Compound 18] | 6.60 | 
CNC(=O)c1nn(-c2ccc(S(N)(=O)=O)cc2)c2c1CCc1[nH]ncc1-2 [Compound 19] | 7.11 | 
COCC(=O)Nc1ccc2c(c1)-c1c(c(C(N)=O)nn1-c1ccc(S(N)(=O)=O)cc1)CC2 [Compound 20] | 6.36 | 
NC(=O)c1nn(-c2ccc(S(N)(=O)=O)cc2)c2c1CCc1cn(CCO)nc1-2 [Compound 21] | 5.91 | 
NS(=O)(=O)c1ccc(-n2nc(C(=O)O)c3c2-c2cn[nH]c2CC3)cc1 [Compound 22] | 5.91 | 
CCOc1cccc2c(C(N)=O)nn(-c3ccc(S(N)(=O)=O)cc3)c12 [Compound 23] | 6.69 | 
NC(=O)c1nn(-c2ccc(S(N)(=O)=O)cc2)c2c1CCc1cnc(N)nc1-2 [Compound 24] | 7.22 | 
C#CCN(CC#C)S(=O)(=O)c1ccc(-n2nc(C(N)=O)c3c2-c2nc(N)ncc2CC3)cc1 [Compound 25] | 5.54 | 
NC(=O)c1cc(-c2ccco2)n(-c2ccc(S(N)(=O)=O)cc2)n1 [Compound 26] | 7.10 | 
NC(=O)c1cc(-c2ccncc2)n(-c2ccc(S(N)(=O)=O)cc2)n1 [Compound 27] | 6.38 | 
NC(=O)c1cc(-c2cccnc2)n(-c2ccc(S(N)(=O)=O)cc2)n1 [Compound 28] | 6.28 | 
NC(=O)c1cc(-c2ccccn2)n(-c2ccc(S(N)(=O)=O)cc2)n1 [Compound 29] | 6.90 | 
NC(=O)c1nn(-c2ccc(S(N)(=O)=O)cc2)c2c1CCC=C2 [Compound 30] | 7.66 | 
COC(=O)c1cc(-c2ccc(OC)cc2)n(-c2ccc(S(N)(=O)=O)cc2)n1 [Compound 31] | 6.62 | 
COC(=O)c1cc(-c2ccccc2)n(-c2ccc(S(N)(=O)=O)cc2)n1 [Compound 32] | 6.74 | 

SMILES | pIC50 [4] | further results
NS(=O)(=O)c1ccc(-n2nc(C(F)(F)F)cc2-c2cccnc2)cc1 [Compound 33] | 7.41 | 
COC(C)Cc1cc(C(F)F)nn1-c1ccc(S(N)(=O)=O)cc1 (stereo not shown) [Compound 34] | 7.74 | 
C/C=C/c1cc(C(F)F)nn1-c1ccc(S(N)(=O)=O)cc1 [Compound 35] | 7.74 | 
COC(C)(C)Cc1cc(C(F)F)nn1-c1ccc(S(N)(=O)=O)cc1 [Compound 36] | 7.33 | 
NS(=O)(=O)c1ccc(-n2nc(C(=O)O)cc2-c2ccccc2)cc1 [Compound 37] | 6.22 | 
NC(=O)c1cc(-c2ccccc2)n(-c2ccc(S(N)(=O)=O)cc2)n1 [Compound 38] | 6.68 | 
COc1ccc(-c2cc(C(N)=O)nn2-c2ccc(S(N)(=O)=O)cc2)cc1 [Compound 39] | 6.59 | 
CNC(=O)c1cc(-c2ccc(OC)cc2)n(-c2ccc(S(N)(=O)=O)cc2)n1 [Compound 41] | 6.48 | 
COc1ccc(-c2cc(C(=O)O)nn2-c2ccc(S(N)(=O)=O)cc2)cc1 [Compound 42] | 5.31 | 
COc1ccc(-c2ccnn2-c2ccc(S(N)(=O)=O)cc2)cc1 [Compound 43] | 6.69 | 
NS(=O)(=O)c1ccc(-n2nc(C(=O)NCC(=O)O)cc2-c2ccc(Cl)cc2)cc1 [Compound 44] | 7.10 | 
NS(=O)(=O)c1ccc(-n2nc(C(F)(F)F)c3c2-c2ccccc2[S+]([O-])C3)cc1 (stereo not shown) [Compound 45] | 7.37 | 
COc1ccc2c(c1F)C[S+]([O-])c1c(C(F)(F)F)nn(-c3ccc(S(N)(=O)=O)cc3)c1-2 (stereo not shown) [Compound 46] | 7.22 | 
NS(=O)(=O)c1ccc(-n2nc(CO)cc2-c2ccc(O)cc2)cc1 [Compound 47] | 7.17 | 
NS(=O)(=O)c1ccc(-n2nc(C(F)(F)F)cc2O)cc1 [Compound 48] | 7.09 | 
COc1cc(C(F)(F)F)nn1-c1ccc(S(N)(=O)=O)cc1 [Compound 49] | 8.06 | 
CC(C)Oc1cc(C(F)(F)F)nn1-c1ccc(S(N)(=O)=O)cc1 [Compound 50] | 7.77 | 
NC(=O)c1nn(-c2ccc(S(N)(=O)=O)cc2)c2c1CSCC2 [Compound 51] | 7.45 | 
NS(=O)(=O)c1ccc(-n2nc(C(F)(F)F)cc2C(=O)C(=O)c2ccccc2)cc1 [Compound 53] | 7.98 | 
NS(=O)(=O)c1ccc(-n2ncc(C(F)(F)F)c2-c2ccccc2)cc1 [Compound 56] | 6.96 | 
NS(=O)(=O)c1ccc(-n2nc(C(F)(F)F)cc2C2CCNCC2)cc1 [Compound 57] | 6.86 | 
CNC(=O)c1nn(-c2ccc(S(N)(=O)=O)cc2)cc1-c1ccccc1 [Compound 58] | 6.41 | 
Cc1ccc(-c2cc(C(F)(F)F)n(-c3ccc(S(N)(=O)=O)cc3)n2)cc1 [Compound 63] | 8.46 | 
NS(=O)(=O)c1ccc(-n2nc(C(F)(F)F)cc2O)cc1 [Compound 65] | 7.09 | 
CS(=O)(=O)c1ccc(-n2nccc2-c2ccc(F)cc2)cc1 [IX, reference compound] |  | IC50 [3]: > 100 µM
CS(=O)(=O)c1ccc(C2=C(c3ccccc3)C(=O)OC2)cc1 [VIII, Rofecoxib, reference compound] |  | IC50 [3]: > 100 µM; pIC50 [2]: < 4.00
O=C(c1ccc(-n2nc(C(F)(F)F)cc2-c2ccc(F)cc2)cc1)C(F)(F)F [X, reference compound] |  | IC50 [3]: > 100 µM

Source: US20030220376A1, “Methods for treating carbonic anhydrase mediated disorders” (Pharmacia Corporation, priority 2001, published 2003)
